Results taken from PubChem BioAssay (NCI).
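Exposure lasted 48 hours, with cells grown in 96-well plates and compounds tested at five concentrations. GI50: concentration for 50% inhibition of growth. Definition used: TGI = concentration required for complete inhibition of growth.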

What was measured:
Assay in all cases: DTP human tumour cell line panel, 48 h
[1] = tested on: SK-MEL-2 melanoma
[2] = tested on: SW-620 colon
[3] = tested on: RXF 393 renal
[4] = tested on: OVCAR-4 ovarian
[5] = tested on: M14 melanoma
[6] = tested on: SNB-19 CNS
[7] = tested on: OVCAR-8 ovarian
[8] = tested on: SK-MEL-28 melanoma
[9] = tested on: LOX IMVI melanoma
[10] = tested on: EKVX NSCLC
[11] = tested on: MALME-3M melanoma
[12] = tested on: CAKI-1 renal
[13] = tested on: A498 renal
[14] = tested on: NCI-H522 lung
[15] = tested on: CCRF-CEM leukemia
[16] = tested on: HT29 colon
[17] = tested on: MCF7 breast
[18] = tested on: MDA-MB-435
[19] = tested on: A549 NSCLC
[20] = tested on: NCI/ADR-RES ovarian
[21] = tested on: UACC-62 melanoma
[22] = tested on: U251 CNS
[23] = tested on: KM12 colon
[24] = tested on: K-562 leukemia
[25] = tested on: NCI-H23 lung
[26] = tested on: NCI-H226 lung
[27] = tested on: SK-MEL-5 melanoma
[28] = tested on: T-47D breast
[29] = tested on: SN12C renal
[30] = tested on: HOP-92 NSCLC
[31] = tested on: SF-295 CNS
[32] = tested on: RPMI-8226 leukemia
[33] = tested on: HCT-15 colon
[34] = tested on: SF-539 CNS
[35] = tested on: IGROV1 ovarian
[36] = tested on: MDA-MB-231 breast
[37] = tested on: NCI-H460 lung
[38] = tested on: COLO 205 colon
[39] = tested on: HS 578T breast
[40] = tested on: SNB-75 CNS
[41] = tested on: UACC-257 melanoma
[42] = tested on: SF-268 CNS
[43] = tested on: PC-3 prostate
[44] = tested on: HL-60(TB) leukemia
[45] = tested on: OVCAR-3 ovarian
[46] = tested on: HCT-116 colon
[47] = tested on: UO-31 renal
[48] = tested on: HOP-62 NSCLC
[49] = tested on: ACHN renal
[50] = tested on: HCC-2998 colon
[51] = tested on: SR leukemia
[52] = tested on: MOLT-4 leukemia
[53] = tested on: DU-145 prostate
[54] = tested on: TK-10 renal
[55] = tested on: OVCAR-5 ovarian
[56] = tested on: BT-549 breast
[57] = tested on: 786-0 renal
[58] = tested on: SK-OV-3 ovarian

O=[N+]([O-])c1ccccc1NC1c2ccccc2Oc2ccccc21
GI50 [1]: 8.43 µM
TGI [1]: > 100 µM
GI50 [2]: 3.55 µM
TGI [2]: > 100 µM
GI50 [3]: 3.35 µM
TGI [3]: 16.6 µM
GI50 [4]: 8.21 µM
TGI [4]: > 100 µM
GI50 [5]: 3.53 µM
TGI [5]: > 100 µM
GI50 [6]: 4.35 µM
TGI [6]: > 100 µM
GI50 [7]: 6.73 µM
TGI [7]: > 100 µM
GI50 [8]: 4.85 µM
TGI [8]: > 100 µM
GI50 [9]: 5.52 µM
TGI [9]: > 100 µM
GI50 [10]: 17.2 µM
TGI [10]: > 100 µM
GI50 [11]: 7.13 µM
TGI [11]: > 100 µM
GI50 [12]: 11 µM
TGI [12]: > 100 µM
GI50 [13]: 5.82 µM
TGI [13]: > 100 µM
GI50 [14]: 3.84 µM
TGI [14]: > 100 µM
GI50 [15]: 4.44 µM
TGI [15]: > 100 µM
GI50 [16]: 3.83 µM
TGI [16]: > 100 µM
GI50 [17]: 4.13 µM
TGI [17]: > 100 µM
GI50 [18]: 2.5 µM
TGI [18]: 6.64 µM
GI50 [19]: 6.51 µM
TGI [19]: > 100 µM
GI50 [20]: 4.03 µM
TGI [20]: > 100 µM
GI50 [21]: 2.94 µM
TGI [21]: > 100 µM
GI50 [22]: 4.88 µM
TGI [22]: > 100 µM
GI50 [23]: 4.34 µM
TGI [23]: > 100 µM
GI50 [24]: 3.69 µM
TGI [24]: > 100 µM
GI50 [25]: 9.67 µM
TGI [25]: > 100 µM
GI50 [26]: 5.91 µM
TGI [26]: > 100 µM
GI50 [27]: 3.44 µM
TGI [27]: > 100 µM
GI50 [28]: 27.8 µM
TGI [28]: > 100 µM
GI50 [29]: 6.17 µM
TGI [29]: > 100 µM
GI50 [30]: 4.22 µM
TGI [30]: > 100 µM
GI50 [31]: 4.45 µM
TGI [31]: > 100 µM
GI50 [32]: 5.86 µM
TGI [32]: > 100 µM
GI50 [33]: 3.5 µM
TGI [33]: > 100 µM
GI50 [34]: 3.27 µM
TGI [34]: > 100 µM
GI50 [35]: 16.9 µM
TGI [35]: > 100 µM
GI50 [36]: 3.95 µM
TGI [36]: 66.6 µM
GI50 [37]: 3.87 µM
TGI [37]: > 100 µM
GI50 [38]: 3.59 µM
TGI [38]: > 100 µM
GI50 [39]: 8.35 µM
TGI [39]: > 100 µM
GI50 [40]: 2.94 µM
TGI [40]: 38.6 µM
GI50 [41]: 7.2 µM
TGI [41]: > 100 µM
GI50 [42]: 8.06 µM
TGI [42]: > 100 µM
GI50 [43]: 5.88 µM
TGI [43]: > 100 µM
GI50 [44]: 2.8 µM
TGI [44]: 7.09 µM
GI50 [45]: 3.64 µM
TGI [45]: > 100 µM
GI50 [46]: 4.08 µM
TGI [46]: > 100 µM
GI50 [47]: 7.46 µM
TGI [47]: > 100 µM
GI50 [48]: 8.07 µM
TGI [48]: > 100 µM
GI50 [49]: 5.93 µM
TGI [49]: > 100 µM
GI50 [50]: 75.2 µM
TGI [50]: > 100 µM
GI50 [51]: 3.32 µM
TGI [51]: > 100 µM
GI50 [52]: 5.03 µM
TGI [52]: > 100 µM
GI50 [53]: 43 µM
TGI [53]: > 100 µM
GI50 [54]: 29.1 µM
TGI [54]: > 100 µM

Cc1oc(N)c(S(=O)(=O)c2ccc(Cl)cc2)c1C
TGI [1]: > 100 µM
TGI [2]: > 100 µM
TGI [3]: > 100 µM
TGI [4]: > 100 µM
TGI [5]: > 100 µM
TGI [55]: > 100 µM
TGI [6]: > 100 µM
TGI [7]: > 100 µM
TGI [8]: > 100 µM
TGI [56]: 60.5 µM
TGI [10]: > 100 µM
TGI [11]: > 100 µM
TGI [13]: > 100 µM
TGI [14]: > 100 µM
TGI [15]: > 100 µM
TGI [16]: > 100 µM
TGI [17]: > 100 µM
TGI [18]: > 100 µM
TGI [19]: > 100 µM
TGI [20]: > 100 µM
TGI [21]: > 100 µM
TGI [22]: > 100 µM
TGI [23]: > 100 µM
TGI [24]: > 100 µM
TGI [25]: > 100 µM
TGI [26]: > 100 µM
TGI [57]: > 100 µM
TGI [27]: > 100 µM
TGI [28]: > 100 µM
TGI [30]: > 100 µM
TGI [31]: > 100 µM
TGI [32]: > 100 µM
TGI [33]: > 100 µM
TGI [34]: 64.2 µM
TGI [35]: > 100 µM
TGI [58]: > 100 µM
TGI [37]: > 100 µM
TGI [39]: > 100 µM
TGI [40]: > 100 µM
TGI [41]: > 100 µM
TGI [42]: > 100 µM
TGI [43]: 78 µM
TGI [44]: > 100 µM
TGI [45]: > 100 µM
TGI [46]: > 100 µM
TGI [47]: > 100 µM
TGI [49]: > 100 µM
TGI [50]: > 100 µM
TGI [51]: > 100 µM
TGI [52]: > 100 µM
TGI [53]: > 100 µM
TGI [54]: > 100 µM
